Measured values from PubChem BioAssay (NCI).
Several values for one entry are separate records, joined by “and”; a condition that tells them apart may be missing. Equal entries are not always repeated.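 The compound was tested at five concentrations on cells cultured in 96-well plates, with a 48-hour exposure period. Abbreviation: GI50, concentration required for 50% inhibition of growth. TGI: concentration producing complete growth inhibition.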 *1 amine or outer side, *2 acyl side, *3 side chain or, on linkers, in order; H or OH if unused. Where a SMILES comes first, the peptide text is derived from it. Bridges are numbered along the chain shown (N, C = ends). Roman numbers before positions name the chains, in order. [ ]: non-standard residue; d: D form. Actinocin(9to1) = Cc1c2oc3c(C)ccc(C(=O)[*:1])c3nc-2c(C(=O)[*:2])c(N)c1=O; NMeF = CN[CH](Cc1ccccc1)C(=O)O; Sar = CNCC(=O)O

Columns and labels:
Assay in all cases: DTP human tumour cell line panel, 48 h
[1] = tested on: CCRF-CEM leukemia
[2] = tested on: SNB-75 CNS
[3] = tested on: OVCAR-3 ovarian
[4] = tested on: M14 melanoma
[5] = tested on: U251 CNS
[6] = tested on: SR leukemia
[7] = tested on: OVCAR-8 ovarian
[8] = tested on: HOP-92 NSCLC
[9] = tested on: UO-31 renal
[10] = tested on: NCI-H460 lung

Structure (SMILES) | GI50 [1] [µM] | TGI [1] [µM] | GI50 [2] [µM] | TGI [2] [µM] | GI50 [3] [µM] | TGI [3] | GI50 [4] [µM] | TGI [4] [µM] | GI50 [5] | TGI [5] | GI50 [6] [µM] | TGI [6] [µM] | GI50 [7] [µM] | TGI [7] | GI50 [8] [µM] | TGI [8] | GI50 [9] | TGI [9] [µM] | GI50 [10] | TGI [10]
CC(O)c1cc(C(=O)N[C@@H](C)Cn2ccc(-c3ccc(C#N)c(Cl)c3)n2)n[nH]1 (some centres undefined) | 16.8 | 39.9 | 52.4 | > 100 | 47.3 | > 100 µM | 32.8 | > 100 | > 100 µM | > 100 µM | 8.06 | > 100 | 28.7 | > 100 µM | 26.5 | > 100 µM | 35.1 µM | > 100 | > 100 µM | > 100 µM
Cc1c([N+](=O)[O-])oc2ccc3ccccc3c12 |  | > 100 |  | > 100 |  | > 100 µM |  | > 100 |  | > 100 µM |  | > 100 |  | > 100 µM |  | > 100 µM |  | > 100 |  | > 100 µM
CC(C)=CCCC(C)C1=C(O)C(=O)C(C)=CC1=O (centres undefined) |  | > 20.5 |  | 37.6 |  | 18.3 µM |  | 36 |  | > 56.1 µM |  | 5.39 |  | 40.9 µM |  | 3.67 µM |  | 21.3 |  | > 100 µM
Cc1c2oc3c(C)ccc(C(=O)NC4C(=O)NC(C(C)C)C(=O)N5CCCC5C(=O)N(C)CC(=O)N(C)C(Cc5ccccc5)C(=O)OC4C)c3nc-2c(C(=O)NC2C(=O)NC(C(C)C)C(=O)N3CCCC3C(=O)N(C)CC(=O)N(C)C(Cc3ccccc3)C(=O)OC2C)c(N)c1=O (centres undefined) (I: TVP[Sar][NMeF] / II: TVP[Sar][NMeF]; ester I:1-I:C, II:1-II:C; linker I:N-II:N via Actinocin(9to1); configuration not given here) | 0.000459 | 0.0102 |  | 0.0645 |  | < 0.01 µM and 0.0453 µM |  | 0.126 | < 0.01 µM and 0.0022 µM | < 0.0435 µM and 0.159 µM | 0.000199 |  |  | 0.132 µM and 0.054 µM |  | < 0.0476 µM and 0.0606 µM | < 0.01 µM and 0.0968 µM |  | < 0.01 µM and 0.00074 µM | < 0.01 µM and 0.0206 µM
C[C@@H]1COCCN1c1cc(C2(O)C[C@H]3CC[C@@H](C2)O3)c2cnn(-c3ccn[nH]3)c2n1 (some centres undefined) | 0.0382 | > 100 | 0.043 | 0.411 | 0.0874 | 0.862 µM | 0.0383 | 0.785 | 0.137 µM | 8.62 µM | 0.0112 | 26.9 | 0.145 | 1.56 µM | 0.114 | 0.879 µM | 0.0427 µM | 0.554 | 0.0334 µM | 1.43 µM
C/C(=N\NC(=S)N(C)C)c1ccccn1 | 0.000277 | 0.232 |  | 14.4 | 0.000474 |  | 0.00884 | 11.5 | 0.00245 µM | 6.73 µM | 0.00132 |  | 0.00318 | 10.8 µM |  | 17.8 µM | 0.166 µM | 3.91 | 0.0214 µM | 4.09 µM
CN(C)CCCn1c(-c2nonc2N)nc2cnccc21 | > 25 | > 25 | 8.06 | > 25 | > 25 | > 25 µM | > 25 | > 25 | > 25 µM | > 25 µM | > 25 | > 25 | > 25 | > 25 µM | 1.96 | > 25 µM | > 11.2 µM | > 25 | > 25 µM | > 25 µM
N#CC1C=Cc2c(ccc3ccccc23)N1C(=O)c1ccccc1 (centres undefined) | 0.149 | > 69.9 | 0.226 | 63.8 | 0.167 | 0.574 µM | 0.209 | > 100 | 0.387 µM | > 81.6 µM | 0.1 |  | 0.461 | > 100 µM | 3.1 | > 100 µM | 1.01 µM | > 23.6 | 0.191 µM | 7.56 µM
CC(=C/c1ccccc1)/C=C1/NC(=S)N(/C=C2\C(=O)Oc3ccccc3C2=O)C1=O |  | > 100 |  | > 100 |  | > 100 µM |  | > 100 |  | > 100 µM |  | > 100 |  | > 100 µM |  | > 65 µM | 91.7 µM | > 100 |  | > 100 µM
Cc1cc(C(=O)c2ccccc2)c(C)c2c1[nH]c1ccc(Cl)cc12 | 0.046 | > 100 | 0.025 | 3.42 | 0.0426 | 9.8 µM | 0.0456 | > 41.7 | 0.0612 µM | 16.2 µM | 0.0383 | > 63.4 | 0.148 | > 100 µM | 1.71 | 21.2 µM | 0.102 µM | 14.1 | 0.041 µM | 14.7 µM
